Measurements published in the supplement of paper PMC10307832.

Experiments:
Test in all cases: relative viability (nuclei count vs DMSO), 5 days (fraction); higher = more cells survive
[1] = compound: Cc1cnc(CNC(=O)c2c(=O)c3ccc(N4CCCN(C)CC4)nc3n3c2sc2ccccc23)cn1 [CX-5461]
How it was run: (§1)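 After an overnight hold at 37 °C, lung cancer cell lines in 1536-well plates were pinned with five library-drug doses (not always all listed), each √10 from the next, on vehicle-anchored plates. The cells stayed 5 days without fresh medium, then a one-step fix, permeabilisation and Hoechst stain preceded 4× imaging and MetaXpress nuclear counts. A plate passed only with control CV under 25% and at least one doubling. Viability is the median, over plates, of treated-well nuclei relative to vehicle-well nuclei.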

[2] = compound: O=C(Nc1cc(C(F)(F)F)cc(C(F)(F)F)c1)c1cc(Cl)ccc1O [IMD-0354]
How it was run: as §1

[3] = compound: O=C(Nc1cc(C(F)(F)F)cc(C(F)(F)F)c1)c1cc(Cl)ccc1O [IMD-0354] + CC1(C)CCC(c2ccc(Cl)cc2)=C(CN2CCN(c3ccc(C(=O)NS(=O)(=O)c4ccc(N[C@H](CCN5CCOCC5)CSc5ccccc5)c(S(=O)(=O)C(F)(F)F)c4)cc3)CC2)C1 [Navitoclax] (partner 0.5 µM)
How it was run: (§2)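 Values are medians from duplicate plates. Each reflects relative viability, defined as the nuclei count of treated wells over that of vehicle wells. Lung cancer cell lines in 1536-well plates were pin-tool dosed one day after seeding with one drug alone or with a fixed anchor-drug dose plus five library-drug doses (not always all listed) in √10 steps, then fixed, stained and imaged at 4× after 5 days.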

[4] = compound: Cc1cnc(CNC(=O)c2c(=O)c3ccc(N4CCCN(C)CC4)nc3n3c2sc2ccccc23)cn1 [CX-5461] + CC(=O)Nc1cccc(-n2c(=O)n(C3CC3)c(=O)c3c(Nc4ccc(I)cc4F)n(C)c(=O)c(C)c32)c1 [Trametinib] (partner 0.02 µM)
How it was run: as §2

Cell Line	relative viability ([1]; 0.01 µM)	relative viability ([1]; 0.03162 µM)	relative viability ([1]; 0.1 µM)	relative viability ([1]; 0.3162 µM)	relative viability ([1]; 1 µM)	relative viability ([2]; 0.04 µM)	relative viability ([2]; 0.1265 µM)	relative viability ([2]; 0.4 µM)	relative viability ([2]; 1.265 µM)	relative viability ([2]; 4 µM)	relative viability ([3]; first compound 0.04 µM)	relative viability ([3]; first compound 0.1265 µM)	relative viability ([3]; first compound 0.4 µM)	relative viability ([3]; first compound 1.265 µM)	relative viability ([3]; first compound 4 µM)	relative viability ([4]; first compound 0.01 µM)	relative viability ([4]; first compound 0.03162 µM)	relative viability ([4]; first compound 0.1 µM)	relative viability ([4]; first compound 0.3162 µM)	relative viability ([4]; first compound 1 µM)
NCI-H1437	1.03	0.97	0.894	1.03	0.877	1.12	0.941	0.626	0.32	0.244	1.17	1.13	0.443	0.152	0.244	0.542	0.568	0.469	0.537	0.391
NCI-H460	1.05	0.97	0.725	0.93	0.128	1.02	1.01	0.379	0.106	0.0241	1.21	0.977	0.0491	0.0709	0.0241	0.21	0.142	0.0583	0.0956	0.0222
NCI-H1666	0.985	0.992	0.949	0.904	0.808	0.954	0.922	0.82	0.611	0.523	1.09	0.932	0.83	0.153	0.174	0.895	0.891	0.719	0.821	0.65
NCI-H1651	0.956	0.871	0.57	0.959	0.371	1.04	0.983	0.577	0.402	0.139	1.05	1.16	0.337	0.052	0.0654	0.824	0.791	0.87	0.79	0.778
NCI-H1755	1.09	1.03	1.01	1.01	0.901	0.989	1.02	0.76	0.454	0.26	1.1	1.05	0.591	0.481	0.16	0.826	0.796	0.836	0.719	0.753
HARA	1.01	1.03	0.957	0.728	0.713	1.17	0.88	0.537	0.154	0.205	0.952	1.11	0.36	0.342	0.131	0.545	0.772	0.573	0.661	0.644
NCI-H596	0.989	1.15	0.968	1.09	0.683	0.989	1.16	0.799	0.834	0.426	0.96	0.854	0.777	0.982	0.476	0.763	0.819	0.73	0.836	0.756
NCI-H23	1.05	1.04	0.856	0.773	0.544	1.14	0.942	0.518	0.195	0.2	0.893	0.814	0.54	0.394	0.207	0.421	0.372	0.407	0.442	0.285
